Assay results from ChEMBL document CHEMBL3045887, “Synthesis and anticonvulsant activity of some N-(benzoyl)glycinanilide derivatives” (Med Chem Res, 2013).
Active and inactive are the calls of the source. The rule behind the calls is not given here.

Assays:
Mus musculus [1] = experiment: Anticonvulsant activity in Swiss albino Mus musculus (mouse) assessed as protection against ScMet-induced myoclonic-clonic seizures at 30 mg/kg, ip measured at 0.5 hr; format: functional, organism-based; set-up: dose 30 mg/kg
Mus musculus [2] = experiment: Neurotoxicity against Swiss albino Mus musculus (mouse) at 100 mg/kg, ip measured at 4 hr; format: toxicity, organism-based; set-up: dose 100 mg/kg, route intraperitoneal; conditions: in vivo
Mus musculus [3] = experiment: Anticonvulsant activity in Swiss albino Mus musculus (mouse) assessed as protection against maximal electric shock-induced tonic-clonic seizures at 30 mg/kg, ip measured at 4 hr; format: functional, organism-based; set-up: dose 30 mg/kg
Mus musculus [4] = experiment: Anticonvulsant activity in Swiss albino Mus musculus (mouse) assessed as protection against maximal electric shock-induced tonic-clonic seizures at 100 mg/kg, ip measured at 0.5 hr; format: functional, organism-based; set-up: dose 100 mg/kg
Mus musculus [5] = experiment: Neurotoxicity against Swiss albino Mus musculus (mouse) at 300 mg/kg, ip measured at 4 hr; format: toxicity, organism-based; set-up: dose 300 mg/kg, route intraperitoneal; conditions: in vivo
Mus musculus [6] = experiment: Anticonvulsant activity in Swiss albino Mus musculus (mouse) assessed as protection against maximal electric shock-induced tonic-clonic seizures at 30 mg/kg, ip measured at 0.5 hr; format: functional, organism-based; set-up: dose 30 mg/kg
Mus musculus [7] = experiment: Neurotoxicity against Swiss albino Mus musculus (mouse) at 300 mg/kg, ip measured at 0.5 hr; format: toxicity, organism-based; set-up: dose 300 mg/kg, route intraperitoneal; conditions: in vivo
Mus musculus [8] = experiment: Anticonvulsant activity in Swiss albino Mus musculus (mouse) assessed as protection against maximal electric shock-induced tonic-clonic seizures at 300 mg/kg, ip measured at 4 hr; format: functional, organism-based; set-up: dose 300 mg/kg
Mus musculus [9] = experiment: Neurotoxicity against Swiss albino Mus musculus (mouse) at 30 mg/kg, ip measured at 4 hr; format: toxicity, organism-based; set-up: dose 30 mg/kg, route intraperitoneal; conditions: in vivo
Mus musculus [10] = experiment: Neurotoxicity against Swiss albino Mus musculus (mouse) at 100 mg/kg, ip measured at 0.5 hr; format: toxicity, organism-based; set-up: dose 100 mg/kg, route intraperitoneal; conditions: in vivo
Mus musculus [11] = experiment: Anticonvulsant activity in Swiss albino Mus musculus (mouse) assessed as protection against ScMet-induced myoclonic-clonic seizures at 100 mg/kg, ip measured at 0.5 hr; format: functional, organism-based; set-up: dose 100 mg/kg
Mus musculus [12] = experiment: Anticonvulsant activity in Swiss albino Mus musculus (mouse) assessed as protection against ScMet-induced myoclonic-clonic seizures at 300 mg/kg, ip measured at 0.5 hr; format: functional, organism-based; set-up: dose 300 mg/kg
Mus musculus [13] = experiment: Anticonvulsant activity in Swiss albino Mus musculus (mouse) assessed as protection against maximal electric shock-induced tonic-clonic seizures at 300 mg/kg, ip measured at 0.5 hr; format: functional, organism-based; set-up: dose 300 mg/kg
Mus musculus [14] = experiment: Anticonvulsant activity in Swiss albino Mus musculus (mouse) assessed as protection against ScMet-induced myoclonic-clonic seizures at 300 mg/kg, ip measured at 4 hr; format: functional, organism-based; set-up: dose 300 mg/kg
Mus musculus [15] = experiment: Anticonvulsant activity in Swiss albino Mus musculus (mouse) assessed as protection against maximal electric shock-induced tonic-clonic seizures at 100 mg/kg, ip measured at 4 hr; format: functional, organism-based; set-up: dose 100 mg/kg
Mus musculus [16] = experiment: Neurotoxicity against Swiss albino Mus musculus (mouse) at 30 mg/kg, ip measured at 0.5 hr; format: toxicity, organism-based; set-up: dose 30 mg/kg, route intraperitoneal; conditions: in vivo
Mus musculus [17] = experiment: Anticonvulsant activity in Swiss albino Mus musculus (mouse) assessed as protection against ScMet-induced myoclonic-clonic seizures at 100 mg/kg, ip measured at 4 hr; format: functional, organism-based; set-up: dose 100 mg/kg
Mus musculus [18] = experiment: Anticonvulsant activity in Swiss albino Mus musculus (mouse) assessed as protection against ScMet-induced myoclonic-clonic seizures at 30 mg/kg, ip measured at 4 hr; format: functional, organism-based; set-up: dose 30 mg/kg

Structure (SMILES) | Activity (Mus musculus [1]) | Activity (Mus musculus [2]) | Activity (Mus musculus [3]) | Activity (Mus musculus [4]) | Activity (Mus musculus [5]) | Activity (Mus musculus [6]) | Activity (Mus musculus [7]) | Activity (Mus musculus [8]) | Activity (Mus musculus [9]) | Activity (Mus musculus [10]) | Activity (Mus musculus [11]) | Activity (Mus musculus [12]) | Activity (Mus musculus [13]) | Activity (Mus musculus [14]) | Activity (Mus musculus [15]) | Activity (Mus musculus [16]) | Activity (Mus musculus [17]) | Activity (Mus musculus [18])
O=C(CNC(=O)c1ccccc1)Nc1ccccc1Cl | inactive | Non-toxic | inactive | inactive | Non-toxic | inactive | Non-toxic | inactive | Non-toxic | Non-toxic | inactive | inactive | inactive | inactive | inactive | Non-toxic | inactive | inactive
O=C(CNC(=O)c1ccccc1Cl)Nc1ccccc1 | inactive | Non-toxic | inactive | inactive | Non-toxic | inactive | Non-toxic | Active | Non-toxic | Non-toxic | inactive | inactive | inactive | inactive | inactive | Non-toxic | inactive | inactive
Cc1ccccc1NC(=O)CNC(=O)c1ccccc1 | inactive | Non-toxic | inactive | inactive | Non-toxic | inactive | Non-toxic | inactive | Non-toxic | Non-toxic | inactive | inactive | Active | inactive | inactive | Non-toxic | inactive | inactive
Cc1cccc(C)c1NC(=O)CNC(=O)c1ccccc1 | inactive | Non-toxic | inactive | inactive | Non-toxic | inactive | Non-toxic | Active | Non-toxic | Non-toxic | inactive | inactive | inactive | inactive | Active | Non-toxic | inactive | inactive
CCc1ccccc1NC(=O)CNC(=O)c1ccccc1 | inactive | Non-toxic | inactive | inactive | Non-toxic | inactive | Non-toxic | inactive | Non-toxic | Non-toxic | inactive | inactive | inactive | inactive | inactive | Non-toxic | inactive | inactive
O=C(CNC(=O)c1ccc([N+](=O)[O-])cc1)Nc1ccccc1 | inactive | Non-toxic | inactive | inactive | Non-toxic | inactive | Non-toxic | inactive | Non-toxic | Non-toxic | inactive | Active | inactive | Active | inactive | Non-toxic | inactive | inactive
COc1ccc(NC(=O)CNC(=O)c2ccccc2)cc1 | inactive | Non-toxic | inactive | Active | Non-toxic | inactive | Non-toxic | Active | Non-toxic | Non-toxic | inactive | inactive | Active | inactive | inactive | Non-toxic | inactive | inactive
Cc1ccc(C(=O)NCC(=O)Nc2ccccc2)cc1 | inactive | Non-toxic | inactive | inactive | Non-toxic | inactive | Non-toxic | inactive | Non-toxic | Non-toxic | inactive | Active | inactive | inactive | inactive | Non-toxic | inactive | inactive
COc1ccccc1NC(=O)CNC(=O)c1ccccc1 | inactive | Non-toxic | inactive | inactive | Non-toxic | inactive | Non-toxic | inactive | Non-toxic | Non-toxic | inactive | inactive | inactive | inactive | inactive | Non-toxic | inactive | inactive
CC(C)c1ccccc1NC(=O)CNC(=O)c1ccccc1 | inactive | Non-toxic | inactive | inactive | Non-toxic | inactive | Non-toxic | inactive | Non-toxic | Non-toxic | inactive | inactive | Active | inactive | inactive | Non-toxic | inactive | inactive
O=C(CNC(=O)c1ccccc1)Nc1ccccc1 | inactive | Non-toxic | inactive | inactive | Non-toxic | inactive | Non-toxic | inactive | Non-toxic | Non-toxic | inactive | inactive | Active | inactive | inactive | Non-toxic | inactive | inactive
